Calls of active or inactive are those of the source. No cut-off for these calls is given here. Bridge positions count the residues as written; N and C are the ends. Square brackets hold non-standard residues; d marks the D form. Peptide text beside a SMILES is read from it. R8 = C=CCCCCCC[C@@](C)(N)C(=O)O; S5 = C=CCCC[C@](C)(N)C(=O)O; AEA = NCCOCC(=O)O
How the values were obtained:
[1] = system: MDA-MB-231; assay: Effect on time length of mitosis in human MDA-MB-231 cells at 50 uM incubated for 10 to 24 hrs by live cell microscopy; type: functional, cell-based; settings: time 10-24 hrs
[2] = system: HeLa; assay: Induction of mitotic arrest in human HeLa cells assessed as prolongation in metaphase at 50 uM measured up to 213 mins by time-lapse imaging analysis; type: functional, cell-based
[3] = system: SW480; assay: Effect on time length of mitosis in human SW480 cells at 50 uM incubated for 10 to 24 hrs by live cell microscopy; type: functional, cell-based; settings: time 10-24 hrs
[4] = system: HeLa; assay: Induction of mitotic arrest in human HeLa cells assessed as time length at 50 uM measured up to 213 mins by time-lapse imaging analysis; type: functional; settings: 3.55 h
[5] = system: RKO; assay: Induction of mitotic arrest in human RKO cells assessed as cells in prolongation at 50 uM measured up to 213 mins by time-lapse imaging analysis relative to control; type: functional; settings: 3.55 h
[6] = system: A549; assay: Induction of mitotic arrest in human A549 cells assessed as cells in prolongation at 50 uM measured up to 213 mins by time-lapse imaging analysis relative to control; type: functional; settings: 3.55 h
[7] = system: HT-1080; assay: Induction of mitotic arrest in human HT-1080 cells assessed as cells in prolongation at 50 uM measured up to 213 mins by time-lapse imaging analysis relative to control; type: functional; settings: 3.55 h
[8] = system: HeLa; assay: Induction of mitotic arrest in human HeLa cells assessed as cells in prolongation at 50 uM measured up to 213 mins by time-lapse imaging analysis relative to control; type: functional; settings: 3.55 h

In the case of `CC[C@H](C)[C@@H]1NC(=O)[C@H](CCC(=O)O)NC(=O)[C@H](CCCCN)NC(=O)[C@H]([C@@H](C)CC)NC(=O)[C@](C)(NC(=O)[C@H](Cc2c[nH]c3ccccc23)NC(=O)[C@H](Cc2c[nH]c3ccccc23)NC(=O)[C@H](CCC(=O)O)NC(=O)COCCNC(=O)CNC(=O)[C@H](Cc2ccccc2)NC(=O)[C@H](Cc2c[nH]c3ccccc23)NC(=O)[C@H](Cc2ccccc2)NC(=O)CNC(C)=O)CCCCCC/C=C\CCC[C@@](C)(C(=O)N[C@@H](CCCNC(=N)N)C(=O)N[C@@H](CCCNC(=N)N)C(=O)N[C@@H](C)C(N)=O)NC(=O)[C@H](CCCNC(=N)N)NC(=O)[C@H](CCC(N)=O)NC1=O` (Ac-GFWFG[AEA]EWW[R8]IKEIQR[S5]RRA-NH2; staple (Z) 10-17), the Activity [1] is reported as “No effect”, the Activity [2] is reported as “Active” and the Activity [3] is reported as “No effect”. The Time [4] was “<=2 hr”, the Activity [5] was 75% and the Activity [6] was 75%. It also gave an Activity [7] of 75% and an Activity [8] of 75%.
